Values of other authors as cited in paper PMC3653137 (Molecular pharmaceutics, 2013).
Residues, ends and D or L forms follow the SMILES beside them.

Tests used:
[1] = test system: BT-20 cells; conditions: BT-20 human breast carcinoma cells
[2] = test system: CCRF-CEM cells; conditions: [WR]4 alone at similar concentrations
[3] = test system: HCT-116 cells; conditions: [WR]4 alone at similar concentrations
[4] = test system: SK-OV-3 cells; conditions: [WR]4 alone at similar concentrations

Row | Molecule | fold enhancement of cellular delivery of F′-GpYEEI by the carrier peptide [1] [fold] | cytotoxicity in CCRF-CEM cells [2] | cytotoxicity in HCT-116 cells [3] | cytotoxicity in SK-OV-3 cells [4]
1 | Lys-(CH2)11-Arg-(CH2)11-Arg [LPA4] | 10 | – | – | –
2 | N=C(N)NCCC[C@@H]1NC(=O)[C@H](Cc2c[nH]c3ccccc23)NC(=O)[C@H](CCCNC(=N)N)NC(=O)[C@H](Cc2c[nH]c3ccccc23)NC(=O)[C@H](CCCNC(=N)N)NC(=O)[C@H](Cc2c[nH]c3ccccc23)NC(=O)[C@H](CCCNC(=N)N)NC(=O)[C@H](Cc2c[nH]c3ccccc23)NC1=O [[WR]4] (cyclo(RWRWRWRW)) | – | not cytotoxic | not cytotoxic | not cytotoxic
